Values quoted from earlier work in patent US6630467B2, “Pyridone-fused azabicyclic- or cytisine derivatives, their preparation and their use in addiction therapy” (Pfizer Inc., priority 1996, dated 2003).

Conditions: in vivo

For O=c1cccc2n1CC1CNCC2C1 (centres unmarked) [cytisine, 1,2,3,4,5,6-hexahydro-1,5-methano-pyrido[1,2-a][1,5]diazocin-8-one], the “penetration of the brain barrier” value is listed as “inability to penetrate the brain barrier” and the potency is listed as “not high”.
